Calls of active or inactive are those of the source. The calls are words filed in the database; no cut-off is given here.
Key:
Tubulin (Sus scrofa) [1] = target: T1, Tubulin (Sus scrofa) (UniProt P02554+P02550); assay: Inhibition of tubulin polymerization in porcine brain at 20 uM
Tubulin = Tubulin (Sus scrofa, UniProt P02554+P02550); assay: Inhibition of tubulin polymerization in porcine brain
Tubulin (Sus scrofa) [2] = target: T1, Tubulin (Sus scrofa); assay: Inhibition of tubulin depolymerization in porcine brain at 10 uM

T1 sequence (P02550 whole entry, looked up): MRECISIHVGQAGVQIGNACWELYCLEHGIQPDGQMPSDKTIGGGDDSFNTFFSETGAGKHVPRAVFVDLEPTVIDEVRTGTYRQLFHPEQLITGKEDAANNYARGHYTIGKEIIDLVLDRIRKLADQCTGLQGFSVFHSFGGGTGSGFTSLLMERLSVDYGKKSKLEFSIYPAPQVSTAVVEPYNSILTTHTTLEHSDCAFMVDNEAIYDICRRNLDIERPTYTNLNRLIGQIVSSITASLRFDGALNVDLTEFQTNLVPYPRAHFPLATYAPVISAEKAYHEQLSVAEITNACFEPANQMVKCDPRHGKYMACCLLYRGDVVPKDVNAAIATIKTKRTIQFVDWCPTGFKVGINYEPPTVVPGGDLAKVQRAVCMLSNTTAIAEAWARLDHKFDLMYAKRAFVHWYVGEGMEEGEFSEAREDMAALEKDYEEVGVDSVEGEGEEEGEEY
T1 sequence (P02554 whole entry, looked up): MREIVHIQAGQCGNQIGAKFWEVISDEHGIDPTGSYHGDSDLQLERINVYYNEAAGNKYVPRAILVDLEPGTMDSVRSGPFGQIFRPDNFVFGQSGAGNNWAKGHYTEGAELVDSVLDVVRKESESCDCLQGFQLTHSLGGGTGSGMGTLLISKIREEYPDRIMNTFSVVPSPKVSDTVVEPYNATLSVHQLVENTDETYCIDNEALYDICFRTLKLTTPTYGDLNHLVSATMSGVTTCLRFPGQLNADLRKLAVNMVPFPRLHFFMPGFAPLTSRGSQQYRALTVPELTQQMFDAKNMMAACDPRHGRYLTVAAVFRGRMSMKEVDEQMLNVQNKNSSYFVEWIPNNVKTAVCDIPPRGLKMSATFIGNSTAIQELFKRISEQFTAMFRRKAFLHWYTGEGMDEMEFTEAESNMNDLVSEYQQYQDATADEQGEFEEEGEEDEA

Work on `CO[C@@H](/C(C)=C/C=C/C(C)=C/c1coc(C)n1)[C@@H](C)[C@@H]1C[C@H](O)[C@@]2(C)O[C@@H]2/C=C/[C@@H](C)[C@H]2C[C@H](CC(=O)O2)C[C@@H]2O[C@H]2C(=O)O1` yielded an inhibition (Tubulin (Sus scrofa) [1]) of 81%.
For `CC(C)c1cc(Br)cc(C(C)C)c1N1C(=O)c2c(F)c(F)c(F)c(F)c2C1=O`, the inhibition (Tubulin (Sus scrofa) [1]) was 11%.
For `CC(C)c1cccc(C(C)C)c1N1C(=O)c2ccc(O)cc2C1=O`, the IC50 (Tubulin) was 6.9 µM.
Work on `Cc1cccc(C)c1N1C(=O)c2c(F)c(F)c(F)c(F)c2C1=O` yielded an inhibition (Tubulin (Sus scrofa) [1]) of 10%.
`CC(C)c1ccccc1N1C(=O)c2c(F)c(F)c(F)c(F)c2C1=O` gave an inhibition (Tubulin (Sus scrofa) [1]) of 10%.
Work on `CC(C)c1ccc([N+](=O)[O-])c(C(C)C)c1N1C(=O)c2c(F)c(F)c(F)c(F)c2C1=O` yielded an inhibition (Tubulin (Sus scrofa) [1]) of 10%.
Compound `O=C1c2c(F)c(F)c(F)c(F)c2C(=O)N1c1ccccc1` has an inhibition (Tubulin (Sus scrofa) [1]) of 7%.
`CC(C)c1cccc(C(C)C)c1N1C(=O)c2cc(F)c(F)cc2C1=O` showed an inhibition (Tubulin (Sus scrofa) [1]) of 8%.
`CCCc1cccc(CCC)c1N1C(=O)c2c(Cl)c(Cl)c(Cl)c(Cl)c2C1=O` gave an inhibition (Tubulin (Sus scrofa) [1]) of 0%.
With `CCc1cccc(CC)c1N1C(=O)c2c(F)c(F)c(F)c(F)c2C1=O` the inhibition (Tubulin (Sus scrofa) [1]) was 18%.
Compound `CC(C)c1cccc(C(C)C)c1N1C(=O)c2c(F)c(F)c(F)c(F)c2C1=O` has an inhibition (Tubulin (Sus scrofa) [1]) of 71% and an IC50 (Tubulin) of 16 µM.
In the case of `CC(C)c1cccc(C(C)C)c1N1C(=O)c2c(F)ccc(F)c2C1=O`, the inhibition (Tubulin (Sus scrofa) [1]) was 78%, the IC50 (Tubulin) was 7.8 µM and the Activity (Tubulin (Sus scrofa) [2]) was “inactive”.
In the case of `Cc1cccc(C)c1N1C(=O)c2c(Cl)c(Cl)c(Cl)c(Cl)c2C1=O`, the inhibition (Tubulin (Sus scrofa) [1]) was 0%.
`CC(C)c1cccc(C(C)C)c1N1C(=O)c2ccc(F)cc2C1=O` gave an inhibition (Tubulin (Sus scrofa) [1]) of 9%.
`CC(C)c1cccc(C(C)C)c1N1C(=O)c2ccccc2C1=O` was tested, and the inhibition (Tubulin (Sus scrofa) [1]) was 3%.
Work on `CC(C)c1cccc(C(C)C)c1N1C(=O)c2cccc(F)c2C1=O` yielded an inhibition (Tubulin (Sus scrofa) [1]) of 73% and an IC50 (Tubulin) of 17 µM.
With `O=C1c2c(Cl)c(Cl)c(Cl)c(Cl)c2C(=O)N1c1ccccc1` the inhibition (Tubulin (Sus scrofa) [1]) was 6%.

— ChEMBL document CHEMBL1149348, “Tubulin polymerization inhibitors with a fluorinated phthalimide skeleton derived from thalidomide” (Bioorg Med Chem Lett, 2006)
